Data on 3 molecules can be found in patent publication US20080293775A1, “Substituted Diphenylethers, -Amines, -Sulfides and -Methanes for the Treatment of Respiratory Disease” (ASTRAZENECA AB, priority 2005, published 2008).

The test concerns the target T1, rhCRTh2 (Homo sapiens, UniProt Q9Y5Y4).
T1 construct: expressed in transfected cells; host or cells: HEK cells (membrane preparation)
T1 sequence (Q9Y5Y4 1-395): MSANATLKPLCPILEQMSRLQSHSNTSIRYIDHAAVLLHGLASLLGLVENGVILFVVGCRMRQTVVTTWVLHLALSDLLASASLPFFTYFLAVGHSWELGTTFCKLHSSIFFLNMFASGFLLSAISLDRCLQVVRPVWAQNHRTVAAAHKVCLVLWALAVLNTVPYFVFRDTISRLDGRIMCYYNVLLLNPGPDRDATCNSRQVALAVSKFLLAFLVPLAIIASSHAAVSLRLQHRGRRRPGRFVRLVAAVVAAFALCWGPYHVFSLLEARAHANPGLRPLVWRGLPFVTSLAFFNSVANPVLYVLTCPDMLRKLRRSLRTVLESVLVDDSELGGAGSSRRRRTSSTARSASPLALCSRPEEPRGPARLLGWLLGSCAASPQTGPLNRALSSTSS
The test can be described thus: Ligand binding assay ([3H]PGD2, SPA beads, HEK cell membranes). The note with it: [3H]PGD2 binding to membranes of HEK cells expressing rhCRTh2/Gα16, SPA, 2 hours at RT; read-out: pIC50 value (converted). Here is the method:
[^3H]PGD2 was purchased from Perkin Elmer Life Sciences with a specific activity of 100-210 Ci/mmol. All other chemicals were of analytical grade.
HEK cells expressing rhCRTh2/Gα16 were routinely maintained in DMEM containing 10% Foetal Bovine Serum (HyClone), 1 mg/ml geneticin, 2 mM L-glutamine and 1% non-essential amino acids. For the preparation of membranes, the adherent transfected HEK cells were grown to confluence in two layer tissue culture factories (Fisher, catalogue number TKT-170-070E). Maximal levels of receptor expression were induced by addition of […] sodium butyrate for the last 18 hours of culture. The adherent cells were washed once with phosphate buffered saline (PBS, 50 ml per cell factory) and detached by the addition of 50 ml per cell factory of ice-cold membrane homogenisation buffer [20 mM HEPES (pH 7.4), 0.1 mM dithiothreitol, 1 mM EDTA, 0.1M phenyl methyl sulphonyl fluoride and 100 μg/ml bacitracin]. Cells were pelleted by centrifugation at 220×g for 10 minutes at 4° C., re-suspended in half the original volume of fresh membrane homogenisation buffer and disrupted using a Polytron homogeniser for 2×20 second bursts keeping the tube in ice at all times. […] The final pellet was re-suspended in 4 ml of membrane homogenisation buffer per cell factory used and the protein content determined. […]
All assays were performed in Corning clear bottomed, white 96-well NBS plates (Fisher). […] (The optimum coating concentrations were determined for each batch of membranes) The beads were pelleted by centrifugation (800×g for 7 minutes at 4° C.), washed once with assay buffer (50 mM HEPES pH 7.4 containing 5 mM magnesium chloride) and finally re-suspended in assay buffer at a bead concentration of 10 mg/ml. […]
Compounds and DK-PGD2 were dissolved in DMSO and diluted in the same solvent to 100× the required final concentration. […] The assay plate was incubated at RT for 2 hours and counted on a Wallac Microbeta liquid scintillation counter (1 minute per well).
As for `CC(=O)NS(=O)(=O)Cc1ccc(Cl)cc1Oc1ccc(S(C)(=O)=O)cc1Cl` [Example 6, N-({4-chloro-2-[2-chloro-4-(methylsulfonyl)phenoxy]benzyl}sulfonyl)acetamide], the IC50 is 158 nM. Then `CS(=O)(=O)c1ccc(Sc2cc(Cl)ccc2OCc2nnn[nH]2)c(Cl)c1` [Example 4], with 158 nM; and `CS(=O)(=O)NC(=O)Cc1ccc(Cl)c(Oc2ccc(S(C)(=O)=O)cc2Cl)c1` [Example 9, 2-{4-chloro-3-[2-chloro-4-(methylsulfonyl)phenoxy]phenyl}-N-(methylsulfonyl)acetamide], with 141 nM.
